The target of one assay is CDK2/Cyclin E1 (Homo sapiens, UniProt P24941). As to the kind of experiment: CDK2/Cyclin E1 Biochemical Assay (TR-FRET), 0.060 mM ATP. Particulars: 0.15 μM Rb (Ser780)-biotin substrate, pH7.0, 60 min preincubation, 120 min reaction, room temperature. In outline: (§1)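 Kinase preincubated with compound (0–10 μM) 60 min at room temperature, then reaction started with ATP and 0.15 μM Rb (Ser780)-biotin peptide and run 120 min in HEPES pH 7.0 buffer with 50 mM MgCl2. Phospho-Rb detected by Eu-cryptate anti-pRb(Ser780)/streptavidin-XL665 TR-FRET (665/620 nm ratio); IC50 from four-parameter logistic fit.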
(In general: In TR-FRET formats the signal depends on donor and acceptor labels being close together.)

The target in a further assay is CDK1/Cyclin B1 (Homo sapiens, UniProt P06493). As to the kind of experiment: CDK1/Cyclin B1 Biochemical Assay (TR-FRET), 0.015 mM ATP. Particulars: 0.15 μM Rb (Ser780)-biotin substrate, pH7.0, 60 min preincubation, 120 min reaction, room temperature. A digest of the protocol:
as §1

Broadly, the IC50 is the midpoint of a concentration-inhibition curve.

Chain of CDK1/Cyclin B1 (P06493 whole entry): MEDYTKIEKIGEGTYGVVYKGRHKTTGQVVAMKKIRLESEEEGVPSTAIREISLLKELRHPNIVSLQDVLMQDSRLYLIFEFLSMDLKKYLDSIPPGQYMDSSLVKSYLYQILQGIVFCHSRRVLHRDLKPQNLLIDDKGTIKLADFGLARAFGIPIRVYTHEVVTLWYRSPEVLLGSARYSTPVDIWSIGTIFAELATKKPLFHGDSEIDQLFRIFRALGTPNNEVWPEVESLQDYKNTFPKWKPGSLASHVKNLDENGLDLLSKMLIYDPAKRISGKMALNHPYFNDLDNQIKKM
Chain of CDK1/Cyclin B1 (P14635 whole entry partner): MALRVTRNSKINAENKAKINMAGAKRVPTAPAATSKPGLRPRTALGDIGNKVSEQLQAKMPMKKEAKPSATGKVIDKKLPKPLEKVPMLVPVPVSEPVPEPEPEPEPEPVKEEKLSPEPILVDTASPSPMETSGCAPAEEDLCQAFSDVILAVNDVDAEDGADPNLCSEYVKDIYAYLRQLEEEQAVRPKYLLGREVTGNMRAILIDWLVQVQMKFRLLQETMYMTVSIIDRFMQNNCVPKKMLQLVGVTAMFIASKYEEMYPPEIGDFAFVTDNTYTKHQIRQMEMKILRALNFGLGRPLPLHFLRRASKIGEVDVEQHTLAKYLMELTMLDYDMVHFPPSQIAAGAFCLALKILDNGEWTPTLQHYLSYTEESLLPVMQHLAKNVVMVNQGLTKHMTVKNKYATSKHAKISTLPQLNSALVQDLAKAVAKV

`CC(C)(O)CNC(=O)O[C@H]1CC[C@@H](c2cc(Nc3ccc4c(c3F)CNS4(=O)=O)n[nH]2)C1` (relative stereo) [Example 146, cis-3-(3-((4-fluoro-1,1-dioxido-2,3-dihydrobenzo[d]isothiazol-5-yl)amino)-1H-pyrazol-5-yl)cyclopentyl(2-hydroxy-2-methylpropyl)carbamate]: the results for the 50% inhibitory concentration (IC50) on CDK2/Cyclin E1 and on CDK1/Cyclin B1 were 8.1 nM and 323 nM, respectively.
Consider `CC(NC(=O)O[C@H]1CC[C@@H](c2cc(Nc3ccc4c(c3F)CNS4(=O)=O)n[nH]2)C1)C1COC1` (relative stereo) [Example 147, cis-3-(3-((4-fluoro-1,1-dioxido-2,3-dihydrobenzo[d]isothiazol-5-yl)amino)-1H-pyrazol-5-yl)cyclopentyl(1-(oxetan-3-yl)ethyl)carbamate], for which the IC50 came to 9.1 nM against CDK2/Cyclin E1 and 606 nM against CDK1/Cyclin B1.
The matching figures for `O=C(NCC1COC1)O[C@H]1CC[C@@H](c2cc(Nc3ccc4c(c3F)CNS4(=O)=O)n[nH]2)C1` (relative stereo) [Example 148, cis-3-(3-((4-fluoro-1,1-dioxido-2,3-dihydrobenzo[d]isothiazol-5-yl)amino)-1H-pyrazol-5-yl)cyclopentyl(oxetan-3-ylmethyl)carbamate]: 44 nM and 523 nM.
In the case of `O=C(NC1COC1)O[C@H]1CC[C@@H](c2cc(Nc3ccc4c(c3F)CNS4(=O)=O)n[nH]2)C1` (relative stereo) [Example 149, cis-3-(3-((4-fluoro-1,1-dioxido-2,3-dihydrobenzo[d]isothiazol-5-yl)amino)-1H-pyrazol-5-yl)cyclopentyl oxetan-3-ylcarbamate], the IC50 at CDK2/Cyclin E1 was 42 nM; at CDK1/Cyclin B1, 666 nM.
As for `O=C(NC12CC(C1)C2)O[C@H]1CC[C@@H](c2cc(Nc3ccc4c(c3F)CNS4(=O)=O)n[nH]2)C1` (relative stereo) [Example 150, cis-3-(3-((4-fluoro-1,1-dioxido-2,3-dihydrobenzo[d]isothiazol-5-yl)amino)-1H-pyrazol-5-yl)cyclopentyl bicyclo[1.1.1]pentan-1-ylcarbamate], the results for the IC50 against CDK2/Cyclin E1 and against CDK1/Cyclin B1 were 0.3 nM and 24 nM, respectively.
The matching figures for `O=C(NC1CC2(CCC2)C1)O[C@H]1CC[C@@H](c2cc(Nc3ccc4c(c3F)CNS4(=O)=O)n[nH]2)C1` (relative stereo) [Example 151, cis-3-(3-((4-fluoro-1,1-dioxido-2,3-dihydrobenzo[d]isothiazol-5-yl)amino)-1H-pyrazol-5-yl)cyclopentyl spiro[3.3]heptan-2-ylcarbamate]: 80 nM and 668 nM.
In the case of `O=C(NC1CCC12CC2)O[C@H]1CC[C@@H](c2cc(Nc3ccc4c(c3F)CNS4(=O)=O)n[nH]2)C1` (relative stereo) [Example 152, cis-3-(3-((4-fluoro-1,1-dioxido-2,3-dihydrobenzo[d]isothiazol-5-yl)amino)-1H-pyrazol-5-yl)cyclopentyl spiro[2.3]hexan-4-ylcarbamate], the results for the IC50 against CDK2/Cyclin E1 and against CDK1/Cyclin B1 were 3.6 nM and 324 nM, respectively.
As to `CNC(=O)O[C@H]1CC[C@@H](c2cc(Nc3ccc4c(c3F)CNS4(=O)=O)n[nH]2)C1` (relative stereo) [Example 153, cis-3-(3-((4-fluoro-1,1-dioxido-2,3-dihydrobenzo[d]isothiazol-5-yl)amino)-1H-pyrazol-5-yl)cyclopentyl methylcarbamate], the IC50 on CDK2/Cyclin E1 turned out to be 91 nM; against CDK1/Cyclin B1, 1120 nM.
`CC1(C)CCN1C(=O)O[C@H]1CC[C@@H](c2cc(Nc3ccc4c(c3F)CNS4(=O)=O)n[nH]2)C1` (relative stereo) [Example 155, cis-3-(3-((4-fluoro-1,1-dioxido-2,3-dihydrobenzo[d]isothiazol-5-yl)amino)-1H-pyrazol-5-yl)cyclopentyl 2,2-dimethylazetidine-1-carboxylate]: the values for the IC50 on CDK2/Cyclin E1 and on CDK1/Cyclin B1 were 1.3 nM and 13 nM, respectively.
As for `CC(NC(=O)O[C@H]1CC[C@@H](c2cc(Nc3ccc4c(c3F)CNS4(=O)=O)n[nH]2)C1)C1CC1` (relative stereo) [Example 156, cis-3-(3-((4-fluoro-1,1-dioxido-2,3-dihydrobenzo[d]isothiazol-5-yl)amino)-1H-pyrazol-5-yl)cyclopentyl(1-cyclopropylethyl)carbamate], the IC50 at CDK2/Cyclin E1 turned out to be 1.7 nM; on CDK1/Cyclin B1, 76 nM.
`O=C(NC1CCC1)O[C@H]1CC[C@@H](c2cc(Nc3ccc4c(c3F)CNS4(=O)=O)n[nH]2)C1` (relative stereo) [Example 157, cis-3-(3-((4-fluoro-1,1-dioxido-2,3-dihydrobenzo[d]isothiazol-5-yl)amino)-1H-pyrazol-5-yl)cyclopentyl cyclobutylcarbamate]: the IC50 against CDK2/Cyclin E1 was determined as 15 nM; at CDK1/Cyclin B1, 240 nM.
As for `CC(C)(C)NC(=O)O[C@H]1CC[C@@H](c2cc(Nc3ccc4c(c3F)CNS4(=O)=O)n[nH]2)C1` (relative stereo) [Example 159, cis-3-(3-((4-fluoro-1,1-dioxido-2,3-dihydrobenzo[d]isothiazol-5-yl)amino)-1H-pyrazol-5-yl)cyclopentyl tert-butylcarbamate], the IC50 is 1 nM against CDK2/Cyclin E1 and 30 nM on CDK1/Cyclin B1.
Turning to `O=C(NC1CC2(CC2)C1)O[C@H]1CC[C@@H](c2cc(Nc3ccc4c(c3F)CNS4(=O)=O)n[nH]2)C1` (relative stereo) [Example 160, cis-3-(3-((4-fluoro-1,1-dioxido-2,3-dihydrobenzo[d]isothiazol-5-yl)amino)-1H-pyrazol-5-yl)cyclopentyl spiro[2.3]hexan-5-ylcarbamate], the figures for the IC50 at CDK2/Cyclin E1 and against CDK1/Cyclin B1 were 105 nM and 579 nM, respectively.
For the compound `COCC(C)NC(=O)O[C@H]1CC[C@@H](c2cc(Nc3ccc4c(c3F)CNS4(=O)=O)n[nH]2)C1` (relative stereo) [Example 161, cis-3-(3-((4-fluoro-1,1-dioxido-2,3-dihydrobenzo[d]isothiazol-5-yl)amino)-1H-pyrazol-5-yl)cyclopentyl(1-methoxypropan-2-yl)carbamate], the IC50 on CDK2/Cyclin E1 is 6.5 nM; on CDK1/Cyclin B1, 332 nM.
Take `CC1(NC(=O)O[C@H]2CC[C@@H](c3cc(Nc4ccc5c(c4F)CNS5(=O)=O)n[nH]3)C2)CCC1` (relative stereo) [Example 163, cis-3-(3-((4-fluoro-1,1-dioxido-2,3-dihydrobenzo[d]isothiazol-5-yl)amino)-1H-pyrazol-5-yl)cyclopentyl(1-methylcyclobutyl)carbamate]: the figures for the half-inhibitory concentration (IC50) on CDK2/Cyclin E1 and against CDK1/Cyclin B1 were 0.8 nM and 18 nM, respectively.
`CC(CC(F)(F)F)NC(=O)O[C@H]1CC[C@@H](c2cc(Nc3ccc4c(c3F)CNS4(=O)=O)n[nH]2)C1` (relative stereo) [Example 165, cis-3-(3-((4-fluoro-1,1-dioxido-2,3-dihydrobenzo[d]isothiazol-5-yl)amino)-1H-pyrazol-5-yl)cyclopentyl(4,4,4-trifluorobutan-2-yl)carbamate]: the IC50 against CDK2/Cyclin E1 stood at 1.3 nM; at CDK1/Cyclin B1 it was 49 nM.
In the case of `CN1Cc2c(ccc(Nc3cc([C@@H]4CC[C@H](OC(=O)NCC(C)(C)O)C4)[nH]n3)c2F)S1(=O)=O` (relative stereo) [Example 168, cis-3-(3-((4-fluoro-2-methyl-1,1-dioxido-2,3-dihydrobenzo[d]isothiazol-5-yl)amino)-1H-pyrazol-5-yl)cyclopentyl(2-hydroxy-2-methylpropyl)carbamate], the results for the IC50 at CDK2/Cyclin E1 and on CDK1/Cyclin B1 were 12 nM and 545 nM, respectively.
Consider `CN1Cc2c(ccc(Nc3cc([C@@H]4CC[C@H](OC(=O)N[C@H]5CC[C@@](C)(O)CC5)C4)[nH]n3)c2F)S1(=O)=O` (relative stereo) [Example 169, cis-3-(3-((4-fluoro-2-methyl-1,1-dioxido-2,3-dihydrobenzo[d]isothiazol-5-yl)amino)-1H-pyrazol-5-yl)cyclopentyl((1s,4s)-4-hydroxy-4-methylcyclohexyl)carbamate], for which the results for the IC50 against CDK2/Cyclin E1 and against CDK1/Cyclin B1 were 7.4 nM and 471 nM, respectively.
With `C[C@H]1[C@H](O)CN1C(=O)O[C@H]1CC[C@@H](c2cc(Nc3ccc4c(c3F)CN(C)S4(=O)=O)n[nH]2)C1` (relative stereo) [Example 170, cis-3-(3-((4-fluoro-2-methyl-1,1-dioxido-2,3-dihydrobenzo[d]isothiazol-5-yl)amino)-1H-pyrazol-5-yl)cyclopentyl(2S,3R)-3-hydroxy-2-methylazetidine-1-carboxylate], the IC50 against CDK2/Cyclin E1 is 23 nM; against CDK1/Cyclin B1 it was 407 nM.
As for `CC(C)NC(=O)O[C@H]1CC[C@@H](c2cc(Nc3ccc4c(c3)CC(=O)NS4(=O)=O)n[nH]2)C1` (relative stereo) [Example 171, cis-3-(3-((1,1-dioxido-3-oxo-3,4-dihydro-2H-benzo[e][1,2]thiazin-6-yl)amino)-1H-pyrazol-5-yl)cyclopentyl isopropylcarbamate], the figures for the IC50 against CDK2/Cyclin E1 and at CDK1/Cyclin B1 were 10 nM and 183 nM, respectively.
The matching figures for `CC(C)NC(=O)O[C@H]1CC[C@@H](c2cc(Nc3ccc4c(c3)CCNS4(=O)=O)n[nH]2)C1` (relative stereo) [Example 172, cis-3-(3-((1,1-dioxido-3,4-dihydro-2H-benzo[e][1,2]thiazin-6-yl)amino)-1H-pyrazol-5-yl)cyclopentyl isopropylcarbamate]: 0.7 nM and 14 nM.
As to `O=C(O[C@H]1CC[C@@H](c2cc(Nc3ccc4c(c3)CNS4(=O)=O)n[nH]2)C1)N1CCCC1` (relative stereo) [Example 174, cis-3-(3-((1,1-dioxido-2,3-dihydrobenzo[d]isothiazol-5-yl)amino)-1H-pyrazol-5-yl)cyclopentyl pyrrolidine-1-carboxylate], the IC50 against CDK2/Cyclin E1 is 6.5 nM; on CDK1/Cyclin B1, 136 nM.

The record behind these values is patent US20260297080A1, “BICYCLIC COMPOUNDS AS CDK INHIBITORS” (BeOne Medicines I GmbH, priority 2022, published 2026).
